Laboratory results reported in publication PMC5506375 (Journal of medicinal chemistry, 2017).

Key:
C jejuni PglD [1] = target: T1, C jejuni PglD (Campylobacter jejuni subsp. jejuni serotype O:2, UniProt Q0P9D1); test: dynamic light scattering of PglD/inhibitor complex; details: apo PglD 31% PDI
S. typhimurium = details: mouse infection model; cited from earlier work
F. tularensis = details: both pre- and post-infection; cited from earlier work
[2] = at therapeutic doses; cited from earlier work
pathogen growth = details: in vitro; cited from earlier work
solubility properties = assay type: physicochemical
[3] = long-term stability in solution; assay type: physicochemical
[4] = target: C. jejuni NCTC 11168 PglD acetyltransferase (Campylobacter jejuni subsp. jejuni serotype O:2, UniProt Q0P9D1); test: continuous C. jejuni PglD inhibition assay; assay type: biochemical; details: for Km: PglD substrates
C jejuni PglD [5] = target: T1, C jejuni PglD; test: PglD inhibition assay with varying substrate concentrations; assay type: biochemical

T1 sequence (Q0P9D1 whole entry): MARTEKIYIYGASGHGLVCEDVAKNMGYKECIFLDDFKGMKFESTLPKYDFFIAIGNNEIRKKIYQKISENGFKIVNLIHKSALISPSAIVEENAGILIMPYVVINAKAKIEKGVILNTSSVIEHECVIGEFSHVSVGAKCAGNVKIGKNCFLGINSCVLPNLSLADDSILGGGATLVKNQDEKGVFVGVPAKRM
Sequence of C. jejuni NCTC 11168 PglD acetyltransferase (Q0P9D1 whole entry): as above

CO[C@H](CNc1nc(CCc2ccc(NC(C)=O)cc2)nc2sc(C(=O)O)c(C)c12)c1ccccc1 [Compound 55, (S)-2-(4-Acetamidophenethyl)-4-((2-methoxy-2-phenylethyl)amino)-5-methylthieno[2,3-d]pyrimidine-6-carboxylic acid]
polydispersity index (PDI) of PglD/inhibitor complex (C jejuni PglD [1]): 24 % PDI

O=S(=O)(Nc1ccccc1)c1ccc(NC(=S)Nc2ccccc2)cc1 [Compound 56, N-phenyl-4-(3-phenylthioureido)benzenesulfonamide]
efficacy against S. typhimurium (S. typhimurium): prophylactic efficacy | protection against F. tularensis (F. tularensis): provided protection | toxicity [2]: not toxic | effect on pathogen growth (pathogen growth): did not affect pathogen growth

Cc1c(C(=O)O)sc2nc(/C=C/c3ccc4[nH]ccc4c3)[nH]c(=O)c12 [Compound 4]
solubility properties (solubility properties): poor solubility properties | long-term stability in solution [3]: poor long-term stability in solution

CNc1nc(CCc2ccccn2)nc2sc(C(=O)O)c(C)c12 [Compound 43, 5-Methyl-4-(methylamino)-2-(2-(pyridin-2-yl)ethyl)thieno[2,3-d]pyrimidine-6-carboxylic acid]
enhancement of potency versus 17 ([4]; 43 vs 17): 4.8 fold

CC(=O)N[C@H]1[C@@H](OP(=O)(O)OP(=O)(O)OC[C@H]2O[C@@H](n3ccc(=O)[nH]c3=O)[C@H](O)[C@@H]2O)O[C@H](C)[C@@H](N)[C@@H]1O [UDP-4-amino-sugar]
Km [4]: 274 µM

COc1cc(CCNc2nc(CCc3ccccc3)nc3sc(C(=O)O)c(C)c23)cc(OC)c1 [Compound 37, 4-((3,5-Dimethoxyphenethyl)amino)-5-methyl-2-phenethylthieno[2,3-d]pyrimidine-6-carboxylic acid]
decrease in potency (C jejuni PglD [5]; 2-fold increase in AcCoA): 2 fold | decrease in potency (C jejuni PglD [5]; 5-fold increase in AcCoA): 4 fold | effect of higher UDP-4-amino-sugar concentrations on the inhibition (C jejuni PglD [5]; significantly higher UDP-4-amino-sugar concentrations): no measurable effect

CC(=O)SCCNC(=O)CCNC(=O)[C@H](O)C(C)(C)COP(=O)(O)OP(=O)(O)OC[C@H]1O[C@@H](n2cnc3c(N)ncnc32)[C@H](O)[C@@H]1OP(=O)(O)O [AcCoA, acetyl coenzyme A]
Km [4]: 295 µM
